From article PMC10342533, “Novel Tetrazole Derivatives Targeting Tubulin Endowed with Antiproliferative Activity against Glioblastoma Cells” (International Journal of Molecular Sciences, 2023)
≈ marks a conversion by molar mass, not a printed value.

Legend:
[1] = Aqueous solubility, shake-flask method, phosphate buffer pH 7.4; assay type: physicochemical; details: thermodynamic from solid, phosphate buffer pH 7.4, shake-flask, mean ± SD of three experiments
Protocol: The aqueous solubility of tetrazole derivatives was determined by the shaking flask methodology in phosphate buffer at pH 7.4, microfiltration, and quantification of the saturated solutions via UV spectroscopy. […] The introduction of polar groups on the 3-indole position was favorable since the most soluble compounds were the oximes 16–19 (38–53 µg/mL), followed by the carbaldehyde series 12–15 (33–45 µg/mL), and the carbonitrile derivatives (25–40 µg/mL), whereas the unsubstituted indoles 8–11 were the least soluble series (19–35 µg/mL).
The aqueous solubility of the compounds was determined using the saturation shake-flask method. First, calibration lines at the maximum wavelength of absorbance were determined for each compound. Then, 5 mg of each compound was suspended in 500 µL of pH 7.4 buffer, and the resulting mixture was shaken for 72 h at room temperature and filtrated over a […] filter to remove the insoluble fraction. The concentration of the compound in the supernatant (saturated solution) was determined by measuring UV absorbance at the maximum wavelength of absorbance and interpolation in the calibration line. A Helios Alfa Spectrophotometer was used for the UV measurements. The aqueous solubility values are given as the average of three independent experiments.

[2] = tested on: HeLa (cervix epithelioid carcinoma); test: Cell growth inhibition, MTT assay, HeLa; assay type: cell-based; details: Homo sapiens
Protocol: (§1) The ability of the synthesized compounds to inhibit the cell proliferation of human cancer cell lines was assayed by measuring cell viability through the use of the MTT method 72 h after treatment. For this purpose, representative cell lines of the most frequent kinds of cancer were selected, including the following: HeLa (cervix epithelioid carcinoma), MCF7 (breast adenocarcinoma), U87 MG (glioblastoma), T98G (temozolomide resistant glioblastoma), HepG2 (hepatocellular carcinoma), HCT8 (colorectal carcinoma), and HT-29 (colon adenocarcinoma).
(§2) The cell lines were obtained from ATTC (Manassas, VA, USA). […] The cells were periodically tested for Mycoplasma infection by using a MycoAlert kit (Lonza, Norwest, Australia), and only Mycoplasma-free cells were used in the experiments.
(§3) Then, every compound was added (10 µL/well) to a final concentration of 10 µM. Untreated cells were used as negative controls. The antiproliferative activity of compounds was measured 72 h after drug exposure through the MTT assay. […] For this purpose, compounds were used at different concentrations, ranging from 10^−10 to 10^−2 M. Measurements were performed in triplicate, and each experiment was repeated three times. The IC50 values were determined using Origin software (version 9.6, OriginLab, Washington, DC, USA).

[3] = tested on: MCF7 (breast adenocarcinoma); test: Cell growth inhibition, MTT assay, MCF7; assay type: cell-based; details: Homo sapiens
Protocol: as §1, §2, §3

U87 MG (glioblastoma) = test: Cell growth inhibition, MTT assay, U87 MG; assay type: cell-based; details: Homo sapiens, U-87 MG
Protocol: as §1, §2, §3

[4] = tested on: T98G (temozolomide resistant glioblastoma); test: Cell growth inhibition, MTT assay, T98G; assay type: cell-based; details: Homo sapiens
Protocol: as §1, §2, §3

[5] = tested on: HepG2 (hepatocellular carcinoma); test: Cell growth inhibition, MTT assay, HepG2; assay type: cell-based; details: Homo sapiens
Protocol: as §1, §2, §3

[6] = tested on: HCT8 (colorectal carcinoma); test: Cell growth inhibition, MTT assay, HCT8; assay type: cell-based; details: Homo sapiens
Protocol: as §1, §2, §3

[7] = tested on: HT-29 (colon adenocarcinoma); test: Cell growth inhibition, MTT assay, HT-29, without or with verapamil; assay type: cell-based, human
Protocol: as §1
Multidrug resistance (MDR) proteins, especially P-glycoprotein (P-gp), are often involved in resistance mechanisms affecting tubulin-binding drugs that are frequently related to the failure of cancer therapies. […] These pumps are also part of the blood–brain barrier.
as §2, §3

[8] = tested on: HEK-293 (embryonic kidney); test: Cell growth inhibition, MTT assay, non-tumor HEK-293; assay type: cell-based; details: Homo sapiens, HEK293, 72 h, non-tumorigenic cell line
Protocol: The ability of the synthesized compounds to inhibit the cell proliferation of human cancer cell lines was assayed by measuring cell viability through the use of the MTT method 72 h after treatment. For this purpose, representative cell lines of the most frequent kinds of cancer were selected, including the following: HeLa (cervix epithelioid carcinoma), MCF7 (breast adenocarcinoma), U87 MG (glioblastoma), T98G (temozolomide resistant glioblastoma), HepG2 (hepatocellular carcinoma), HCT8 (colorectal carcinoma), and HT-29 (colon adenocarcinoma). […] The compounds were also tested against the non-tumor HEK-293 cells to study their selectivity toward cancer cells. […] The cell lines were obtained from ATTC (Manassas, VA, USA). […] The cells were periodically tested for Mycoplasma infection by using a MycoAlert kit (Lonza, Norwest, Australia), and only Mycoplasma-free cells were used in the experiments. […] Louis, MO, USA), which was dissolved in PBS at 5 mg/mL in accordance with the manufacturer's instructions. […] Untreated cells were used as negative controls. The antiproliferative activity of compounds was measured 72 h after drug exposure through the MTT assay. […] For this purpose, compounds were used at different concentrations, ranging from 10^-10 to 10^-2 M. Measurements were performed in triplicate, and each experiment was repeated three times. The IC50 values were determined using Origin software (version 9.6, OriginLab, Washington, DC, USA).

[9] = target: T1, microtubular protein isolated from calf brains (bovine brain tubulin) (Bos taurus, UniProt P81947+Q6B856); test: Tubulin polymerization inhibition (TPI); assay type: biochemical; details: in vitro tubulin polymerization, mean ± SD
T1 construct: from tissue; host or cells: calf (bovine) brain
T1 sequence (Q6B856 whole entry): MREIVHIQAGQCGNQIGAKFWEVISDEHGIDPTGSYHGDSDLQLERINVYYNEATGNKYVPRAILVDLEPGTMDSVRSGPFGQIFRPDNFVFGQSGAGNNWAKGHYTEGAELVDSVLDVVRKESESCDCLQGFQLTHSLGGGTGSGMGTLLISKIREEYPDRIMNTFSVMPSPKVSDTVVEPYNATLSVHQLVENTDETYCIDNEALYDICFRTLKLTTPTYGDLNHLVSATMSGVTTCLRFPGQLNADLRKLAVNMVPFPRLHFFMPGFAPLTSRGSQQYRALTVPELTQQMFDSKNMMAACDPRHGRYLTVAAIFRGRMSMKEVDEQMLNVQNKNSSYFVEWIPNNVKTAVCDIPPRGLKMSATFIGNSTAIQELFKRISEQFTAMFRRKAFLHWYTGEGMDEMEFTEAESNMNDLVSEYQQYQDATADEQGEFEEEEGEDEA
T1 sequence (P81947 whole entry): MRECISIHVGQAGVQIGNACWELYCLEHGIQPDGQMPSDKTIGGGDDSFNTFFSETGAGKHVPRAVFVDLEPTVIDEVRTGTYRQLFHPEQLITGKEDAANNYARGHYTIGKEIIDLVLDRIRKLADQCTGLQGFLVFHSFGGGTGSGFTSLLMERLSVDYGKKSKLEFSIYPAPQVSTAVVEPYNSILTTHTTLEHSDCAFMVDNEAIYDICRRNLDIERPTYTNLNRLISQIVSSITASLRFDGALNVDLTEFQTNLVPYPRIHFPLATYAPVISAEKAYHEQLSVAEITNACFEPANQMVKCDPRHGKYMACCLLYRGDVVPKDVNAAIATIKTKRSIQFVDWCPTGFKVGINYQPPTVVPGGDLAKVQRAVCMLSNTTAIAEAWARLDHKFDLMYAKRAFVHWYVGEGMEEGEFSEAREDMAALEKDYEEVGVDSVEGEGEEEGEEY
Protocol: We evaluated the capacity of the new synthesized compounds to inhibit the polymerization of microtubular protein isolated from calf brains. The assays were performed by taking absorbance measurements to quantify the amount of polymer mass formed in the presence (or absence; negative controls) of the compounds.
Bovine brain tubulin was isolated as previously described by following a modified version of the Shelanski method. The protein was stored at −80 °C, and its concentration was determined by employing the Bradford method before each use. […] Tubulin polymerization, caused when heating the samples, was accompanied by an increase in the absorbance (at 450 nm) of the sample that was monitored by using a Helios α spectrophotometer. […] Measurements were performed in triplicate in two independent experiments using microtubular proteins from different preparations.

[10] = HCT-8, 72 h after drug exposure
[11] = Homo sapiens, HT-29, 72 h after drug exposure
[12] = mean ± SD, Table S1, in the presence of verapamil (10 µM)
[13] = Homo sapiens, HT-29, mean ± SD, Table S1

solubility at 72 h [1] [µg/mL] | IC50 ([2]; 72 h after drug exposure) [nM] | IC50 ([2]; mean ± SD, Table S1) [nM] | IC50 ([3]; 72 h after drug exposure) [nM] | IC50 (U87 MG (glioblastoma); 72 h after drug exposure) [nM] | IC50 (U87 MG (glioblastoma); mean ± SD, Table S1) [nM] | IC50 ([4]; 72 h, 72 h after drug exposure) [nM] | IC50 ([4]; mean ± SD, Table S1) [nM] | IC50 ([5]; 72 h after drug exposure) [nM] | IC50 [6, 10] [nM] | IC50 [7, 11] [nM] | IC50 [7, 12] [nM] | IC50 [9] [µM] | IC50 ([3]; mean ± SD, Table S1) [nM] | IC50 ([6]; HCT-8, mean ± SD, Table S1) [nM] | IC50 [7, 13] [nM] | Compound | IC50 [8] [µM] | IC50 ([5]; mean ± SD, Table S1) [nM]
53 ± 0.3 (≈ 138 µM) | 220 | 220.2 ± 1.9 | 215 | 155 | 155.2 ± 1.3 | 181 | 181.4 ± 1.5 | 229 | 227 | 238 | 230 ± 2.5 | 3.8 ± 0.1 |  |  |  | COc1cc(-c2nnnn2-c2ccc3c(c2)c(C=NO)cn3C)cc(Cl)n1 [Compound 17, 5-(5-(2-chloro-6-methoxypyridin-4-yl)-1H-tetrazol-1-yl)-1-methyl-1H-indole-3-carbaldehyde oxime] | 7.25 | 
35.4 ± 0.2 (≈ 104 µM) | 72 | 72.5 ± 0.4 | 69 | 48 | 48.1 ± 0.4 | 54 | 54.4 ± 0.5 | 70 | 75 | 81 | 80.2 ± 0.6 | 3.1 ± 0.2 | 69.3 ± 0.5 | 75.4 ± 0.6 | 81.1 ± 0.5 | COc1cc(-c2nnnn2-c2ccc3c(ccn3C)c2)cc(Cl)n1 [Compound 9, 5-(5-(2-chloro-6-methoxypyridin-4-yl)-1H-tetrazol-1-yl)-1-methyl-1H-indole] | 5.2 | 70.5 ± 0.5
42.7 ± 0.5 (≈ 107 µM) | 131 |  | 123 | 93 | 93.4 ± 1 | 102 | 102 ± 1.1 | 127 | 115 | 152 | 150 ± 1.6 | 3.3 ± 0.1 | 123 ± 1.7 | 115 ± 1.3 | 152.3 ± 1.4 | CSc1cc(-c2nnnn2-c2ccc3c(c2)c(C=NO)cn3C)cc(Cl)n1 [Compound 18, 5-(5-(2-chloro-6-(methylsulfanyl)pyridin-4-yl)-1H-tetrazol-1-yl)-1-methyl-1H-indole-3-carbaldehyde oxime] | 6.13 | 

Compound | solubility at 72 h [1] [µg/mL] | IC50 ([2]; 72 h after drug exposure) [nM] | IC50 ([2]; mean ± SD, Table S1) [nM] | IC50 ([3]; 72 h after drug exposure) [nM] | IC50 (U87 MG (glioblastoma); 72 h after drug exposure) [nM] | IC50 (U87 MG (glioblastoma); mean ± SD, Table S1) [nM] | IC50 ([4]; 72 h, 72 h after drug exposure) [nM] | IC50 ([4]; mean ± SD, Table S1) [nM] | IC50 ([5]; 72 h after drug exposure) [nM] | IC50 [6, 10] [nM] | IC50 [7, 11] [nM] | IC50 [7, 12] [nM] | IC50 [9] [µM] | IC50 ([3]; mean ± SD, Table S1) [nM] | IC50 ([6]; HCT-8, mean ± SD, Table S1) [nM] | IC50 [7, 13] [nM] | IC50 [8] [µM] | IC50 ([5]; mean ± SD, Table S1) [nM]
COc1ccc(S(=O)(=O)Nc2cccnc2Nc2ccc(O)cc2)cc1 [ABT-751, reference compound] | 40 ± 0.3 (≈ 108 µM) | 388 | 388 ± 3.9 | 180 |  | 375 ± 5.4 |  |  |  | 209 | 213 | 250 ± 2.9 |  | 180 ± 2.8 | 209.1 ± 2 | 213.5 ± 2.1 |  | 327.1 ± 1.1
